Values joined by “and” are separate entries in the source; they are usually repeats but may differ in a detail not shown here. Equal values may be shown once.

This experiment has as its target ROCK2 (human) (UniProt O75116). The experiment in a line: Inhibition of ROCK2 Kinase Activity.

ROCK2 (human), sequence (O75116 whole entry, looked up): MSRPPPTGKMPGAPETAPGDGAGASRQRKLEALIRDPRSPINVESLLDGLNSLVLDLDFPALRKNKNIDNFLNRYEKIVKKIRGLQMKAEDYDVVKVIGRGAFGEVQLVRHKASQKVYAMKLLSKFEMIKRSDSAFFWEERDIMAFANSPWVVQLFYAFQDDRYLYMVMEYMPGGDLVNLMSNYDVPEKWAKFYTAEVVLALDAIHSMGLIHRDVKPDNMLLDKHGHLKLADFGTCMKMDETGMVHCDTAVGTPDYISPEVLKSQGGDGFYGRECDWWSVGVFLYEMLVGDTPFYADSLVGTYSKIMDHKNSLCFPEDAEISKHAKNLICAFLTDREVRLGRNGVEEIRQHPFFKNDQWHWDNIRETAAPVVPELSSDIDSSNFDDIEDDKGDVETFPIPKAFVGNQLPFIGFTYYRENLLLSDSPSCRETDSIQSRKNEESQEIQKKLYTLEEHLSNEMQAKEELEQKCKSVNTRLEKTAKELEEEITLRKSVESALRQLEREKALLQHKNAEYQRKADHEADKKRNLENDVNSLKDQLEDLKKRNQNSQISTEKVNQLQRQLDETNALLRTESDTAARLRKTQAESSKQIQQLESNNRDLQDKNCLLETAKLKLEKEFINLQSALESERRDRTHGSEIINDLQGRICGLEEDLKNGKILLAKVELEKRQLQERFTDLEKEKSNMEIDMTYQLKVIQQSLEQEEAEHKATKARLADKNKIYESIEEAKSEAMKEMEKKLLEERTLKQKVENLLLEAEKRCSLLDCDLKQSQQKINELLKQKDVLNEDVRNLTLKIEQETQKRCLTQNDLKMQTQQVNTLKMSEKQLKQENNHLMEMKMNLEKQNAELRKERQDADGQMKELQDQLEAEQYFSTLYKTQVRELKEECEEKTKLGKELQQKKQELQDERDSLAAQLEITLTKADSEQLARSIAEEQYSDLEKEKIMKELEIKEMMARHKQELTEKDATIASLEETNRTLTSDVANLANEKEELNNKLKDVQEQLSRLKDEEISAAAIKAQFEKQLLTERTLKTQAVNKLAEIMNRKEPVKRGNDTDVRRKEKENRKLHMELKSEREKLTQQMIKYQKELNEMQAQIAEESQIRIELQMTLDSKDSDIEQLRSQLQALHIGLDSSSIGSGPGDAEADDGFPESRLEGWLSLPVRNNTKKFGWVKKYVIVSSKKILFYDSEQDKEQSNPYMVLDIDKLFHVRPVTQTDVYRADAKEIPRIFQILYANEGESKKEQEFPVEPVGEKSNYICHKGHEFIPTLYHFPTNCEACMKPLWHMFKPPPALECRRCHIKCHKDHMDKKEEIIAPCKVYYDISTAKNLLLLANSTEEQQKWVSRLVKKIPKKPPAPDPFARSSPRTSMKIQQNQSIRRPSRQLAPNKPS

One may read the IC50 as the point on the concentration scale where inhibition reaches its midpoint. In the case of `CCC(N)[C@]1(C2CC2)CC[C@H](Oc2cc3cc[nH]c(=O)c3cc2Cl)CC1` (some centres undefined), the IC50 was at most 10 nM. For `CC(C)C1(C(N)c2cncs2)CCC(Oc2cc3cc[nH]c(=O)c3cc2Cl)CC1` (centres undefined) the value was 10 to 100 nM; for `CCC(N)[C@]1(C2CCS(=O)(=O)CC2)CC[C@H](Oc2cc3cc[nH]c(=O)c3cc2Cl)CC1` (some centres undefined), at most 10 nM.

`CCC(N)[C@]1(C2CCOCC2)CC[C@H](Oc2cc3cc[nH]c(=O)c3cc2Cl)CC1` (some centres undefined) had an IC50 of at most 10 nM.

`CCCC[C@]1(C(N)CC)CC[C@@H](Oc2cc3cc[nH]c(=O)c3cc2Cl)CC1` (some centres undefined) came in with an IC50 of at most 10 nM. On to `CC[C@]1(C(C)N)CC[C@@H](Oc2cc3cc[nH]c(=O)c3cc2C)CC1` (some centres undefined), for which the IC50 is 10 to 100 nM. The figure for `NC(c1ccccc1)[C@]1(CC2CC2)CC[C@H](Oc2cc3cc[nH]c(=O)c3cc2Cl)CC1` (some centres undefined) is 100 to 1000 nM. The figure for `CCC(N)C1(C(C)C)CCC(Oc2cc3cc[nH]c(=O)c3cc2Cl)CC1` (centres undefined) is ≤ 10 nM and 10 to 100 nM; for `CC[C@H](N)[C@]1(C)CC[C@H](Oc2cc3cc[nH]c(=O)c3cc2Cl)CC1` it is at most 10 nM.

`CCC[C@]1(C(C)N)CC[C@@H](Oc2cc3ccnc(N)c3cc2Cl)CC1` (some centres undefined) showed an IC50 of 100 to 1000 nM.

As to `CCOC1(C(N)CC)CCC(Oc2cc3cc[nH]c(=O)c3cc2Cl)CC1` (centres undefined), the IC50 lay in the range of 10 to 100 nM.

Take `CCC(N)[C@]1(C2CCCCC2)CC[C@H](Oc2cc3cc[nH]c(=O)c3cc2Cl)CC1` (some centres undefined): the IC50 was 10 to 100 nM. For `CC(C)C(N)C1(CC2CC2)CCC(Oc2cc3cc[nH]c(=O)c3cc2Cl)CC1` (centres undefined) the value was at most 10 nM. The figure for `CC(C)CC(N)[C@]1(CC2CC2)CC[C@H](Oc2cc3cc[nH]c(=O)c3cc2Cl)CC1` (some centres undefined) is at most 10 nM; for `CC[C@@H](N)[C@]1(C2CCOCC2)CC[C@H](Oc2cc3cc[nH]c(=O)c3cc2Cl)CC1` it is at most 10 nM; for `NC(C1CC1)C1(CC2CC2)CCC(Oc2cc3cc[nH]c(=O)c3cc2Cl)CC1` (centres undefined) it is 10 to 100 nM and ≤ 10 nM. For `CC[C@]1(C(C)N)CC[C@@H](Oc2c(F)cc3cnccc3c2C)CC1` (some centres undefined) the value was 100 to 1000 nM; for `NC(C(F)(F)F)C1(CC2CC2)CCC(Oc2cc3cc[nH]c(=O)c3cc2Cl)CC1` (centres undefined), 100 to 1000 nM; for `CCC(N)C1(C2CCCC2)CCC(Oc2cc3cc[nH]c(=O)c3cc2Cl)CC1` (centres undefined), 10 to 100 nM. Regarding `CCC(N)[C@]1(CC)CC[C@H](Oc2c(F)cc3cnccc3c2C)CC1` (some centres undefined), the half-maximal inhibitory concentration (IC50) lay within 100 to 1000 nM. The figure for `CCC(N)[C@]1(CC)CC[C@H](Oc2cc3cc[nH]c(=O)c3cc2Cl)CC1` (some centres undefined) is at most 10 nM. The figure for `CCC(N)[C@]1(C2CCSCC2)CC[C@H](Oc2cc3cc[nH]c(=O)c3cc2Cl)CC1` (some centres undefined) is at most 10 nM; for `CCC(N)[C@]1(CC)CC[C@H](Oc2c(C)cc3c(=O)[nH]ccc3c2C)CC1` (some centres undefined) it is 100 to 1000 nM. The figure for `CCCC(N)C1(CC2CC2)CCC(Oc2cc3cc[nH]c(=O)c3cc2Cl)CC1` (centres undefined) is 10 to 100 nM and ≤ 10 nM; for `CCC(N)C1(CC2CC2)CCC(Oc2cc3cc[nH]c(=O)c3cc2Cl)CC1` (centres undefined) it is 10 to 100 nM and ≤ 10 nM; for `CC(C)C1(C(N)c2nccs2)CCC(Oc2cc3cc[nH]c(=O)c3cc2Cl)CC1` (centres undefined) it is 100 to 1000 nM. In turn, `NC(c1ccccc1)C1(C2CCCC2)CCC(Oc2cc3cc[nH]c(=O)c3cc2Cl)CC1` (centres undefined) displayed an IC50 of 10 to 100 nM. Regarding `CCC(NCC(C)C)[C@]1(CC)CC[C@H](Oc2cc3cc[nH]c(=O)c3cc2Cl)CC1` (some centres undefined), the IC50 was in the range of 100 to 1000 nM. The figure for `CC(N)C1(CC2CC2)CCC(Oc2cc3cc[nH]c(=O)c3cc2Cl)CC1` (centres undefined) is 10 to 100 nM and ≤ 10 nM; for `CCC(N)C1(CC(C)C)CCC(Oc2cc3cc[nH]c(=O)c3cc2Cl)CC1` (centres undefined) it is 10 to 100 nM and 100 to 1000 nM.

As to `CC(N)C1(C2CCC2)CCC(Oc2cc3cc[nH]c(=O)c3cc2Cl)CC1` (centres undefined), the IC50 fell in the range of 10 to 100 nM.

`CCC(N)[C@]1(OC)CC[C@H](Oc2cc3cc[nH]c(=O)c3cc2Cl)CC1` (some centres undefined) came in with an IC50 of 10 to 100 nM. For `CC[C@]1(C(C)N)CC[C@@H](Oc2c(F)cc3c(=O)[nH]ccc3c2C)CC1` (some centres undefined) the value was 100 to 1000 nM; for `CCC(N)[C@]1(CCCC(F)(F)F)CC[C@H](Oc2cc3cc[nH]c(=O)c3cc2Cl)CC1` (some centres undefined), at most 10 nM; for `CC[C@]1(C(C)N)CC[C@@H](Oc2cc3cc[nH]c(=O)c3cc2F)CC1` (some centres undefined), 10 to 100 nM. The figure for `CC[C@@H](N)[C@]1(CC)CC[C@H](Oc2cc3cc[nH]c(=O)c3cc2Cl)CC1` is at most 10 nM; for `CC(N)[C@]1(C2CC2)CC[C@H](Oc2cc3cc[nH]c(=O)c3cc2Cl)CC1` (some centres undefined) it is 10 to 100 nM.

The molecule `CCC(N)[C@]1(OC)CC[C@@H](Oc2cc3cc[nH]c(=O)c3cc2Cl)CC1` (some centres undefined) showed an IC50 of 10 to 100 nM. For `CCC(N)[C@]1(CC)CC[C@H](Oc2c(F)cc3c(=O)[nH]ccc3c2C)CC1` (some centres undefined) the value was 100 to 1000 nM; for `CCC(N)[C@]1(C)CC[C@H](Oc2cc3cc[nH]c(=O)c3cc2Cl)CC1` (some centres undefined), at most 10 nM.

Take `CCC(N)[C@]1(C2CCOCC2)CC[C@@H](Oc2cc3cc[nH]c(=O)c3cc2Cl)CC1` (some centres undefined): the IC50 fell in the range of 100 to 1000 nM. The figure for `CCC(N)C1(C)CCC(Oc2cc3cc[nH]c(=O)c3cc2Cl)CC1` (centres undefined) is 10 to 100 nM. For `NC(C1CC1)[C@]1(C2CC2)CC[C@H](Oc2cc3cc[nH]c(=O)c3cc2Cl)CC1` (some centres undefined) the value was at most 10 nM; for `CC[C@]1(C(C)N)CC[C@@H](Oc2ccc3cnccc3c2Cl)CC1` (some centres undefined), 100 to 1000 nM. `CCCC[C@]1(C(N)CC)CC[C@@H](Oc2cc3c(Cc4ccccc4)c[nH]c(=O)c3cc2Cl)CC1` (some centres undefined) returned an IC50 of 100 to 1000 nM. The figure for `NC(C1CC1)[C@]1(CC2CCOCC2)CC[C@H](Oc2cc3cc[nH]c(=O)c3cc2Cl)CC1` (some centres undefined) is at most 10 nM. The figure for `CCC1(C(C)N)CCC(Oc2cc3cc[nH]c(=O)c3cc2Cl)CC1` (centres undefined) is 10 to 100 nM and ≤ 10 nM; for `CC[C@]1(C(C)N)CC[C@@H](Oc2cc3ccncc3cc2Br)CC1` (some centres undefined) it is 100 to 1000 nM. For `CCCC1(C(N)CC)CCC(Oc2cc3cc[nH]c(=O)c3cc2Cl)CC1` (centres undefined) the value was at most 10 nM; for `CCC(N)[C@]1(CC)CC[C@H](Oc2cc3cc[nH]c(=O)c3cc2F)CC1` (some centres undefined), 10 to 100 nM. Regarding `CC[C@]1(C(C)N)CC[C@@H](Oc2cc3c(Cc4ccccc4)c[nH]c(=O)c3cc2Cl)CC1` (some centres undefined), the concentration for half-maximal inhibition (IC50) was 100 to 1000 nM. For `CC[C@@H](N)[C@]1(C)CC[C@H](Oc2cc3cc[nH]c(=O)c3cc2Cl)CC1` the value was at most 10 nM.

As to `CCC(N)[C@]1(CC)CC[C@H](Oc2c(C)cc3cnccc3c2C)CC1` (some centres undefined), the IC50 lay within 100 to 1000 nM. Regarding `CCC(N)C1(C(F)(F)F)CCC(Oc2cc3cc[nH]c(=O)c3cc2Cl)CC1` (centres undefined), the IC50 is 100 to 1000 nM and ≤ 10 nM.

Molecule `CCOC[C@]1(C(N)CC)CC[C@@H](Oc2cc3cc[nH]c(=O)c3cc2Cl)CC1` (some centres undefined) yielded an IC50 of at most 10 nM. In turn, `C[C@]1(C(N)c2ccccc2)CC[C@@H](Oc2cc3cc[nH]c(=O)c3cc2Cl)CC1` (some centres undefined) gave an IC50 of 10 to 100 nM. For `CC[C@H](N)[C@]1(CC)CC[C@H](Oc2cc3cc[nH]c(=O)c3cc2Cl)CC1` the value was at most 10 nM; for `CCC(N)C1(Cc2ccccc2)CCC(Oc2cc3cc[nH]c(=O)c3cc2Cl)CC1` (centres undefined), 10 to 100 nM. The figure for `NC(C1CC1)[C@]1(CCCC(F)(F)F)CC[C@H](Oc2cc3cc[nH]c(=O)c3cc2Cl)CC1` (some centres undefined) is at most 10 nM; for `CCCC(N)[C@]1(C(C)C)CC[C@H](Oc2cc3cc[nH]c(=O)c3cc2Cl)CC1` (some centres undefined) it is 10 to 100 nM; for `CCC(N)C1(COC(C)C)CCC(Oc2cc3cc[nH]c(=O)c3cc2Cl)CC1` (centres undefined) it is 10 to 100 nM and 100 to 1000 nM. For `CC(C)C(N)C1(C(C)C)CCC(Oc2cc3cc[nH]c(=O)c3cc2Cl)CC1` (centres undefined) the value was 100 to 1000 nM; for `CCC(N)[C@]1(CC)CC[C@H](Oc2cc3ccncc3cc2C)CC1` (some centres undefined), 100 to 1000 nM. Molecule `CCC1(C(N)CCOC)CCC(Oc2cc3cc[nH]c(=O)c3cc2Cl)CC1` (centres undefined) had an IC50 of 10 to 100 nM.

The molecule `CC[C@]1(C(N)CF)CC[C@H](Oc2cc3cc[nH]c(=O)c3cc2Cl)CC1` (some centres undefined) yielded an IC50 of 10 to 100 nM. The figure for `CC[C@H](N)[C@]1(C2CCOCC2)CC[C@H](Oc2cc3cc[nH]c(=O)c3cc2Cl)CC1` is 10 to 100 nM. For `CCC(N)[C@]1(CC2CCOCC2)CC[C@H](Oc2cc3cc[nH]c(=O)c3cc2Cl)CC1` (some centres undefined) the value was 10 to 100 nM; for `CCC(N)[C@]1(C(C)C)CC[C@H](Oc2cc3c(F)c[nH]c(=O)c3cc2Cl)CC1` (some centres undefined), 10 to 100 nM; for `CCC(N)[C@]1(CC)CC[C@H](Oc2cc3cc[nH]c(=O)c3cc2C)CC1` (some centres undefined), 100 to 1000 nM. `C[C@]1(C(N)C2CC2)CC[C@@H](Oc2cc3cc[nH]c(=O)c3cc2Cl)CC1` (some centres undefined) showed an IC50 of at most 10 nM. As to `CCC(N)C1(C2CCC2)CCC(Oc2cc3cc[nH]c(=O)c3cc2Cl)CC1` (centres undefined), the IC50 was 10 to 100 nM and 100 to 1000 nM. As to `CC[C@]1(C(N)C2CC2)CC[C@@H](Oc2cc3cc[nH]c(=O)c3cc2Cl)CC1` (some centres undefined), the IC50 was at most 10 nM. For `CCCC(N)[C@]1(C)CC[C@H](Oc2cc3cc[nH]c(=O)c3cc2Cl)CC1` (some centres undefined), the IC50 was at most 10 nM.

Take `CCC(NCC1CC1)[C@]1(CC)CC[C@H](Oc2cc3cc[nH]c(=O)c3cc2Cl)CC1` (some centres undefined): the IC50 lay in the range of 100 to 1000 nM. For `CC[C@]1(C(N)CF)CC[C@@H](Oc2cc3cc[nH]c(=O)c3cc2Cl)CC1` (some centres undefined) the value was at most 10 nM; for `CCC[C@]1(C(C)N)CC[C@@H](Oc2cc3cc[nH]c(=O)c3cc2Cl)CC1` (some centres undefined), at most 10 nM. Consider `CCCC1(C(N)C2CC2)CCC(Oc2cc3cc[nH]c(=O)c3cc2Cl)CC1` (centres undefined), for which the IC50 is ≤ 10 nM and 10 to 100 nM.

As to `CCCCNC(CC)[C@]1(CC)CC[C@H](Oc2cc3cc[nH]c(=O)c3cc2Cl)CC1` (some centres undefined), the IC50 was 100 to 1000 nM. For `CCC(NCc1ccccc1)[C@]1(CC)CC[C@H](Oc2cc3cc[nH]c(=O)c3cc2Cl)CC1` (some centres undefined), the IC50 was 100 to 1000 nM.

The values are drawn from the Kinase Knowledgebase extract (Sharma et al. 2016).
